Laboratory results published in EP4810038A1, “METHOD FOR TREATING ALK-POSITIVE OR ROS1-POSITIVE NON-SMALL CELL LUNG CANCER” (Shenzhen TargetRx Co., Ltd., priority 2023, dated 2025).

Assay: Phase I clinical trial: safety and tolerability (TRAE, CNS-related AE, DLT, MTD, RP2D)
Assay type: in vivo
Text: An adverse event will be described using MedDRA (Medical Dictionary for Regulatory Activities). Analysis of an adverse event will be based on a treatment emergent adverse event (TEAE). TEAE is defined as an adverse event that occur or worsen after a treatment/medication.
Subjects in all the dose groups received a single dose on day 1 (D1), and the blood samples were collected for pharmacokinetic (PK) assay and tolerability observation. […] The administration frequency for the subjects in the subsequent dose groups after entering the multiple-dose period was determined based on the obtained PK and tolerability data. In this trial, the administration frequency for all the subjects could be adjusted throughout the trial based on the continuously acquired safety and PK data. The four lower dose groups (5 mg, 10 mg, 20 mg and 40 mg) used an accelerated titration design, with one subject enrolled in each dose group. […] The 60 mg dose group and the subsequent dose groups followed a "3+3" dose escalation method, and the MTD was determined. […] During the dose escalation, if a dose group was confirmed to have a preliminary antitumor effect and manageable safety (e.g., no DLT occurred in 3 subjects or only 1 out of 6 subjects experienced DLT), the dose level could be expanded after a discussion and confirmation by the researcher and the sponsor.

[1] = 60mg dose group n=168, any level

With [2H]C([2H])([2H])n1nc2c(c1C#N)-c1cnc(N)c(c1)O[C@H](C)c1cc(F)ccc1C(=O)N(C)C2 [compound A, (10R)-7-amino-12-fluoro-2-(methyl-d3)-10,16-dimethyl-15-oxo-10,15,16,17-tetrahydro-2H-8,4-(metheno)pyrazolo[4,3-h][2,5,11]benzoxadiazacyclotetradecine-3-carbonitrile] the “Any TRAE” value [1] was 159 (94.6) number of cases (%), the “TRAE Anemia” value [1] was 26 (15.5) number of cases (%) and the “TRAE Diarrhea” value [1] was 8 (8.2) number of cases (%). The “TRAE Edema” value [1] was 45(22.7) number of cases (%), the “TRAE Elevated alanine aminotransferase” value [1] was 14 (8.3) number of cases (%) and the “TRAE Elevated creatinine” value [1] was 11 (6.5) number of cases (%). For the same molecule, the “TRAE Hypercholesterolemia” value [1] was 131 (78.0) number of cases (%), the “TRAE Hypertriglyceridemia” value [1] was 124 (73.8) number of cases (%) and the “TRAE Hyperuricemia” value [1] was 26 (15.5) number of cases (%). The “TRAE Hypoproteinemia” value [1] was 10 (6.0) number of cases (%), the “TRAE Increased AST” value [1] was 18 (10.7) number of cases (%) and the “TRAE Increased LDL cholesterol” value [1] was 45 (26.8) number of cases (%). For the same molecule, the “TRAE Increased creatine phosphokinase” value [1] was 9 (5.4) number of cases (%), the “TRAE Increased glutamine transferase” value [1] was 9 (5.4) number of cases (%) and the “TRAE Increased lipase” value [1] was 12 (7.1) number of cases (%). The “TRAE Peripheral neuropathy” value [1] was 34(20.2) number of cases (%), the “TRAE Positive for occult blood in urine” value [1] was 13 (7.7) number of cases (%) and the “TRAE Proteinuria” value [1] was 7 (7.2) number of cases (%). The “TRAE Weight gain” value [1] was 77 (45.8) number of cases (%), the “Any TRAE” value (60mg dose group n=168, ≥3) was 61 (36.3%) number of cases (%) and the “TRAE Anemia” value (60mg dose group n=168, ≥3) was 4 (2.4) number of cases (%). The “TRAE Diarrhea” value (60mg dose group n=168, ≥3) was 0 number of cases (%), the “TRAE Edema” value (60mg dose group n=168, ≥3) was 2 (1.2) number of cases (%) and the “TRAE Elevated alanine aminotransferase” value (60mg dose group n=168, ≥3) was 0 number of cases (%). For the same molecule, the “TRAE Elevated creatinine” value (60mg dose group n=168, ≥3) was 0 number of cases (%), the “TRAE Hypercholesterolemia” value (60mg dose group n=168, ≥3) was 17 (10.1) number of cases (%) and the “TRAE Hypertriglyceridemia” value (60mg dose group n=168, ≥3) was 31 (18.5) number of cases (%). For the same molecule, the “TRAE Hyperuricemia” value (60mg dose group n=168, ≥3) was 4 (2.4) number of cases (%), the “TRAE Hypoproteinemia” value (60mg dose group n=168, ≥3) was 0 number of cases (%) and the “TRAE Increased AST” value (60mg dose group n=168, ≥3) was 0 number of cases (%). For the same molecule, the “TRAE Increased LDL cholesterol” value (60mg dose group n=168, ≥3) was 0 number of cases (%), the “TRAE Increased creatine phosphokinase” value (60mg dose group n=168, ≥3) was 0 number of cases (%) and the “TRAE Increased glutamine transferase” value (60mg dose group n=168, ≥3) was 2 (1.2) number of cases (%). The “TRAE Increased lipase” value (60mg dose group n=168, ≥3) was 1 (0.6) number of cases (%), the “TRAE Peripheral neuropathy” value (60mg dose group n=168, ≥3) was 1 (0.6) number of cases (%) and the “TRAE Positive for occult blood in urine” value (60mg dose group n=168, ≥3) was 0 number of cases (%). The “TRAE Proteinuria” value (60mg dose group n=168, ≥3) was 0 number of cases (%), the “TRAE Weight gain” value (60mg dose group n=168, ≥3) was 11 (6.5) number of cases (%) and the “dose interruption or dose reduction due to treatment-related CNS AEs” value (198 patients) was “no dose interruption or dose reduction was observed”. The “most common TRAEs” value (198 patients) was “hypercholesterolemia, hypertriglyceridemia, or weight gain”, the “patients with grade ≥ 3 treatment-related CNS AEs” value (198 patients) was 1.0% and the “Any CNS-related AE” value (Any level) was 18 (9.1) number of cases (%). The “CNS-related AE: Anger” value (Any level) was 1 (0.5) number of cases (%), the “CNS-related AE: Cognitive impairment” value (Any level) was 1 (0.5) number of cases (%) and the “CNS-related AE: Depression” value (Any level) was 3 (1.5) number of cases (%). The “CNS-related AE: Disorganized speech” value (Any level) was 1 (0.5) number of cases (%), the “CNS-related AE: Impact on cognition” value (Any level) was 5 (2.5) number of cases (%) and the “CNS-related AE: Impact on emotion” value (Any level) was 4 (2.0) number of cases (%). For the same molecule, the “CNS-related AE: Impact on language” value (Any level) was 2 (1.0) number of cases (%), the “CNS-related AE: Impact on sleep” value (Any level) was 7 (4.5) number of cases (%) and the “CNS-related AE: Insomnia” value (Any level) was 1 (0.5) number of cases (%). For the same molecule, the “CNS-related AE: Memory impairment” value (Any level) was 3 (1.5) number of cases (%), the “CNS-related AE: Mental disorder” value (Any level) was 1 (0.5) number of cases (%) and the “CNS-related AE: Poor sleep quality” value (Any level) was 6 (4.0) number of cases (%). For the same molecule, the “CNS-related AE: Speech disorder” value (Any level) was 1 (0.5) number of cases (%), the “Any TRAE” value (In total n=198, any level) was 184 (92.9%) number of cases (%) and the “TRAE Anemia” value (In total n=198, any level) was 27 (13.6) number of cases (%). For the same molecule, the “TRAE Diarrhea” value (In total n=198, any level) was 13 (6.6) number of cases (%), the “TRAE Edema” value (In total n=198, any level) was 51(25.8) number of cases (%) and the “TRAE Elevated alanine aminotransferase” value (In total n=198, any level) was 18 (9.1) number of cases (%). The “TRAE Elevated creatinine” value (In total n=198, any level) was 12 (6.1) number of cases (%), the “TRAE Hypercholesterolemia” value (In total n=198, any level) was 154 (77.8) number of cases (%) and the “TRAE Hypertriglyceridemia” value (In total n=198, any level) was 147 (74.2) number of cases (%). The “TRAE Hyperuricemia” value (In total n=198, any level) was 27 (13.6) number of cases (%), the “TRAE Hypoproteinemia” value (In total n=198, any level) was 10 (5.1) number of cases (%) and the “TRAE Increased AST” value (In total n=198, any level) was 20 (10.1) number of cases (%).
